Assays:
southern crabgrass = assay: Test Example 5: herbicidal effect by foliage application, plastic box (Table 20, symbol F); type: in vivo, southern crabgrass (Digitaria ciliaris); conditions: foliage application, 320 g/ha, three weeks after application
Outline: (§1)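 Plants sown in sterilized diluvial soil and grown 14 days in a greenhouse at 25° C to 30° C, then sprayed on the foliage with the compound's emulsion diluted in water to a predetermined herbicide amount. Injury to weeds and crops scored three weeks after application on a visual rating scale.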

oval-leafed pondweed = assay: Test Example 2: herbicidal activity, application during weed generation under submerged conditions (Table 17, symbol C); type: in vivo, oval-leafed pondweed (Monochoria vaginalis); conditions: AAH 320 g/ha; application during weed generation, submerged conditions
Outline: (§2)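 Herbicide emulsion, diluted with water to the chosen amount, is applied onto 4 cm floodwater over alluvial soil where the weeds were co-sown and raised at 25–30° C. Application timing: 1–2 leaves. Assessment: three weeks afterwards.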

late watergrass [1] = assay: Test Example 2: herbicidal activity, application during weed generation under submerged conditions (Table 17, symbol A); type: in vivo, late watergrass (Echinochloa oryzicola); conditions: AAH 320 g/ha; application during weed generation, submerged conditions
Outline: as §2

Japanese bulrush = assay: Test Example 2: herbicidal activity, application during weed generation under submerged conditions (Table 17, symbol B); type: in vivo, Japanese bulrush (Schoenoplectus juncoides); conditions: AAH 320 g/ha; application during weed generation, submerged conditions
Outline: as §2

barnyard grass = assay: Test Example 3: herbicidal effect by foliage application, Wagner pot (Table 18, symbol H); type: in vivo, barnyard grass (Echinochloa crus-galli); conditions: for herbicidal effect on H: barnyard grass: amount of applied herbicide 320 g/ha
Outline: (§3)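 Plants were sown in alluvial soil held under 0.1–0.5 cm standing water and grown 14 days in a greenhouse at 25–30 °C. An emulsifiable formulation, water-diluted to the set dose, was then sprayed onto the foliage, and effects were scored three weeks later using previously defined criteria.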

Italian ryegrass [2] = assay: Test Example 4: herbicidal effect by soil treatment (Table 19, symbol K); type: in vivo, Italian ryegrass (Lolium multiflorum); conditions: amount of applied herbicide 320 g/ha
Outline: (§4)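 Three weeks of greenhouse growth at 25° C. to 30° C. followed a uniform surface spray of water-diluted emulsion at a predetermined herbicide amount. Seeds had been sown beforehand under about 1.5 cm of sterilized diluvial soil. Grading followed criteria set out in an earlier test.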

green foxtail [3] = assay: Test Example 4: herbicidal effect by soil treatment (Table 19, symbol G); type: in vivo, green foxtail (Setaria viridis); conditions: amount of applied herbicide 320 g/ha
Outline: as §4

lambsquarters = assay: Test Example 5: herbicidal effect by foliage application, plastic box (Table 20, symbol O); type: in vivo, lambsquarters (Chenopodium album); conditions: foliage application, 320 g/ha, three weeks after application
Outline: as §1

persian speedwell [4] = assay: Test Example 4: herbicidal effect by soil treatment (Table 19, symbol R); type: in vivo, Persian speedwell (Veronica persica); conditions: amount of applied herbicide 320 g/ha
Outline: as §4

windgrass [5] = assay: Test Example 4: herbicidal effect by soil treatment (Table 19, symbol L); type: in vivo, windgrass (Apera spica-venti); conditions: amount of applied herbicide 320 g/ha
Outline: as §4

green foxtail [6] = assay: Test Example 5: herbicidal effect by foliage application, plastic box (Table 20, symbol G); type: in vivo, green foxtail (Setaria viridis); conditions: foliage application, 320 g/ha, three weeks after application
Outline: as §1

windgrass [7] = assay: Test Example 5: herbicidal effect by foliage application, plastic box (Table 20, symbol L); type: in vivo, windgrass (Apera spica-venti); conditions: foliage application, 320 g/ha, three weeks after application
Outline: as §1

persian speedwell [8] = assay: Test Example 5: herbicidal effect by foliage application, plastic box (Table 20, symbol R); type: in vivo, Persian speedwell (Veronica persica); conditions: foliage application, 320 g/ha, three weeks after application
Outline: as §1

Italian ryegrass [9] = assay: Test Example 5: herbicidal effect by foliage application, plastic box (Table 20, symbol K); type: in vivo, Italian ryegrass (Lolium multiflorum); conditions: foliage application, 320 g/ha, three weeks after application
Outline: as §1

rice flat sedge = assay: Test Example 3: herbicidal effect by foliage application, Wagner pot (Table 18, symbol E); type: in vivo, rice flat sedge (Cyperus iria); conditions: for herbicidal effect on E: rice flat sedge: amount of applied herbicide 320 g/ha
Outline: as §3

late watergrass [10] = assay: Test Example 1: herbicidal activity, application before weed generation under submerged conditions (Table 16, symbol A); type: in vivo, late watergrass (Echinochloa oryzicola); conditions: amount of applied herbicide 320 g/ha
Outline: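 Submerged Wagner pots (alluvial soil, 4 cm water) sown with weed seeds and planted with 2.5-leaf rice seedlings; emulsifiable concentrate diluted in water applied to water surface on sowing day. Held in greenhouse at 25-30 °C; injury scored 0-5 by herbicidal rate after three weeks.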

chickweed = assay: Test Example 4: herbicidal effect by soil treatment (Table 19, symbol P); type: in vivo, common chickweed (Stellaria media); conditions: amount of applied herbicide 320 g/ha
Outline: as §4

Row | Structure (SMILES) | F: southern crabgrass, herbicidal effect grade (southern crabgrass) | herbicidal effect rating, C: oval-leafed pondweed (oval-leafed pondweed) | herbicidal effect rating, A: late watergrass (late watergrass [1]) | herbicidal effect rating, B: Japanese bulrush (Japanese bulrush) | herbicidal effect on H: barnyard grass (barnyard grass) | herbicidal effect, K: Italian ryegrass (Italian ryegrass [2]) | herbicidal effect, G: green foxtail (green foxtail [3]) | O: lambsquarters, herbicidal effect grade (lambsquarters) | herbicidal effect, R: persian speedwell (persian speedwell [4]) | G: green foxtail, herbicidal effect grade (green foxtail [6]) | L: windgrass, herbicidal effect grade (windgrass [7]) | R: persian speedwell, herbicidal effect grade (persian speedwell [8]) | K: Italian ryegrass, herbicidal effect grade (Italian ryegrass [9]) | herbicidal effect on E: rice flat sedge (rice flat sedge) | Herbicidal effect, A: late watergrass (late watergrass [10]) | K: Italian ryegrass, herbicidal effect grade (Italian ryegrass [2]) | G: green foxtail, herbicidal effect grade (green foxtail [3]) | R: persian speedwell, herbicidal effect grade (persian speedwell [4]) | L: windgrass, herbicidal effect grade (windgrass [5]) | P: chickweed, herbicidal effect grade (chickweed) | other results
1 | CCCC(=O)Oc1c(C)nn(C)c(=O)c1-c1c(-c2ccccc2OCC)sc2cc(F)ccc12 [3-007] | 5 (Herbicidal rate of 90% or more (almost completely withered)) | 4 (Herbicidal rate of 70% or more and less than 90%) | 3 (Herbicidal rate of 40% or more and less than 70%) | 4 (Herbicidal rate of 70% or more and less than 90%) | 5 (Herbicidal rate of 90% or more (almost completely withered)) | 4 (Herbicidal rate of 70% or more and less than 90%) | 3 (Herbicidal rate of 40% or more and less than 70%) | 5 (Herbicidal rate of 90% or more (almost completely withered)) | 4 (Herbicidal rate of 70% or more and less than 90%) | 5 (Herbicidal rate of 90% or more (almost completely withered)) | 5 (Herbicidal rate of 90% or more (almost completely withered)) | 5 (Herbicidal rate of 90% or more (almost completely withered)) | 5 (Herbicidal rate of 90% or more (almost completely withered)) | 5 (Herbicidal rate of 90% or more (almost completely withered)) | 5 (Herbicidal rate of 90% or more (almost completely withered)) |  |  |  |  |  | herbicidal effect, L: windgrass (windgrass [5]): 5 (Herbicidal rate of 90% or more (almost completely withered)); herbicidal effect, P: chickweed (chickweed): 5 (Herbicidal rate of 90% or more (almost completely withered))
2 | COc1ccccc1-c1sc2cc(F)ccc2c1-c1c(OC(=O)c2ccco2)c(C)nn(C)c1=O [3-023] | 3 (Herbicidal rate of 40% or more and less than 70%) | 4 (Herbicidal rate of 70% or more and less than 90%) | 2 (Herbicidal rate of 20% or more and less than 40%) | 2 (Herbicidal rate of 20% or more and less than 40%) | 5 (Herbicidal rate of 90% or more (almost completely withered)) | 5 (Herbicidal rate of 90% or more (almost completely withered)) | 4 (Herbicidal rate of 70% or more and less than 90%) | 3 (Herbicidal rate of 40% or more and less than 70%) | 4 (Herbicidal rate of 70% or more and less than 90%) | 5 (Herbicidal rate of 90% or more (almost completely withered)) | 5 (Herbicidal rate of 90% or more (almost completely withered)) | 3 (Herbicidal rate of 40% or more and less than 70%) | 5 (Herbicidal rate of 90% or more (almost completely withered)) | 5 (Herbicidal rate of 90% or more (almost completely withered)) | 3 (Herbicidal rate of 40% or more and less than 70%) |  |  |  |  |  | herbicidal effect, L: windgrass (windgrass [5]): 3 (Herbicidal rate of 40% or more and less than 70%); herbicidal effect, P: chickweed (chickweed): 4 (Herbicidal rate of 70% or more and less than 90%)
3 | COc1ccccc1-c1sc2cc(F)ccc2c1-c1c(OS(=O)(=O)c2ccc(C)cc2)c(C)nn(C)c1=O [3-027] | 3 (Herbicidal rate of 40% or more and less than 70%) | 3 (Herbicidal rate of 40% or more and less than 70%) | 3 (Herbicidal rate of 40% or more and less than 70%) | 2 (Herbicidal rate of 20% or more and less than 40%) | 5 (Herbicidal rate of 90% or more (almost completely withered)) |  |  | 3 (Herbicidal rate of 40% or more and less than 70%) |  | 5 (Herbicidal rate of 90% or more (almost completely withered)) | 5 (Herbicidal rate of 90% or more (almost completely withered)) | 0 (Herbicidal rate of 5% or less (almost no effect)) | 3 (Herbicidal rate of 40% or more and less than 70%) | 5 (Herbicidal rate of 90% or more (almost completely withered)) | 2 (Herbicidal rate of 20% or more and less than 40%) | 0 (Herbicidal rate of 5% or less (almost no effect)) | 0 (Herbicidal rate of 5% or less (almost no effect)) | 0 (Herbicidal rate of 5% or less (almost no effect)) | 0 (Herbicidal rate of 5% or less (almost no effect)) | 0 (Herbicidal rate of 5% or less (almost no effect)) | 
4 | COc1ccccc1-c1sc2cc(F)ccc2c1-c1c(OS(=O)(=O)N(C)C)c(C)nn(C)c1=O [3-028] | 3 (Herbicidal rate of 40% or more and less than 70%) | 0 (Herbicidal rate of 5% or less (almost no effect)) | 2 (Herbicidal rate of 20% or more and less than 40%) | 0 (Herbicidal rate of 5% or less (almost no effect)) | 4 (Herbicidal rate of 70% or more and less than 90%) |  |  | 2 (Herbicidal rate of 20% or more and less than 40%) |  | 4 (Herbicidal rate of 70% or more and less than 90%) | 5 (Herbicidal rate of 90% or more (almost completely withered)) | 0 (Herbicidal rate of 5% or less (almost no effect)) | 4 (Herbicidal rate of 70% or more and less than 90%) | 5 (Herbicidal rate of 90% or more (almost completely withered)) | 2 (Herbicidal rate of 20% or more and less than 40%) | 0 (Herbicidal rate of 5% or less (almost no effect)) | 0 (Herbicidal rate of 5% or less (almost no effect)) | 0 (Herbicidal rate of 5% or less (almost no effect)) | 3 (Herbicidal rate of 40% or more and less than 70%) | 0 (Herbicidal rate of 5% or less (almost no effect)) | 
5 | CCCC(=O)Oc1c(C)nn(C)c(=O)c1-c1c(-c2ccc(Cl)cc2)sc2cc(Cl)ccc12 [3-034] | 3 (Herbicidal rate of 40% or more and less than 70%) | 0 (Herbicidal rate of 5% or less (almost no effect)) | 3 (Herbicidal rate of 40% or more and less than 70%) | 0 (Herbicidal rate of 5% or less (almost no effect)) |  |  |  | 4 (Herbicidal rate of 70% or more and less than 90%) |  | 4 (Herbicidal rate of 70% or more and less than 90%) | 5 (Herbicidal rate of 90% or more (almost completely withered)) | 5 (Herbicidal rate of 90% or more (almost completely withered)) | 4 (Herbicidal rate of 70% or more and less than 90%) |  | 3 (Herbicidal rate of 40% or more and less than 70%) | 1 (Herbicidal rate of 5% or more and less than 20%) | 0 (Herbicidal rate of 5% or less (almost no effect)) | 4 (Herbicidal rate of 70% or more and less than 90%) | 0 (Herbicidal rate of 5% or less (almost no effect)) | 3 (Herbicidal rate of 40% or more and less than 70%) | herbicidal effect on barnyard grass (H) (barnyard grass; 320 g/ha): 5 (Herbicidal rate of 90% or more (almost completely withered)); herbicidal effect on rice flat sedge (E) (rice flat sedge; 320 g/ha): 5 (Herbicidal rate of 90% or more (almost completely withered))
